From ChEMBL document CHEMBL1131272, “Aromatic analogs of arcaine inhibit MK-801 binding to the NMDA receptor” (Bioorg Med Chem Lett, 1998)

Key:
[1] = molecular target: Glutamate [NMDA] receptor; experiment: Ability to inhibit MK-801 binding to NMDA receptor in the presence of 100 uM of spermidine was determined; assay type: protein-complex assay
[2] = molecular target: Glutamate [NMDA] receptor; experiment: Ability to inhibit MK-801 binding to the NMDA receptor was determined; assay type: protein-complex assay

| IC50 [1] [µM] | IC50 [2] [µM] | SMILES |
| --- | --- | --- |
| 75.8 | 5.1 | CCN(Cc1cccc(CN(CC)C(=N)N)c1)C(=N)N |
| 7.09 | 1.19 | N=C(N)NCc1cccc(CNC(=N)N)c1 |
| 55.3 | 20.6 | CCCN(Cc1cc(CN(CCC)C(=N)N)cc(OC)c1)C(=N)N |
| 95.2 | 8.62 | CCCN(Cc1cccc(CN(CCC)C(=N)N)n1)C(=N)N |
| 9.88 | 9.07 | N=C(N)NCc1cc(CNC(=N)N)cc(OC2CCCCC2)c1 |
| 49.3 | 4.02 | N=C(N)NCc1cccc(CNC(=N)N)n1 |
| 112 | 10.8 | CC(C)CN(Cc1cccc(CN(CC(C)C)C(=N)N)c1)C(=N)N |
| 20.6 | 4.34 | N=C(N)NCc1cc(CNC(=N)N)cc(NC(=O)c2ccccc2)c1 |
| 29.8 | 3.85 | C=CCN(Cc1cccc(CN(CC=C)C(=N)N)c1)C(=N)N |
| 5.89 | 1.3 | COc1cc(CNC(=N)N)cc(CNC(=N)N)c1 |
| 15.7 | 5.14 | N=C(N)NCc1cc(CNC(=N)N)cc(-c2ccccc2)c1 |
| 12.2 | 0.58 | CCCN(Cc1cccc(CN(CCC)C(=N)N)c1)C(=N)N |
| 10.5 | 2.43 | CC(C)Oc1cc(CNC(=N)N)cc(CNC(=N)N)c1 |
| 9.27 | 2.8 | CCCCN(Cc1cccc(CN(CCCC)C(=N)N)c1)C(=N)N |
| 2.23 | 3.82 | N=C(N)N(Cc1ccccc1)Cc1cccc(CN(Cc2ccccc2)C(=N)N)c1 |
| 111 | 10.6 | CCCN(Cc1cc(O)cc(CN(CCC)C(=N)N)c1)C(=N)N |
| 80 | 9.13 | NC(N)=NCCCCN=C(N)N [ARCAINE] |
